Read-outs that look alike come from different tables or passages of the source.
Columns and labels:
[1] = system: HIV-1 (IIIB), HIV-1 (NL4.3); experiment: microbe, parasite or virus in culture; format: cell-based; conditions: for EC50: Human immunodeficiency virus 1, IIIB, MT4, MT-4 cells, 50% protection against HIV-induced cytopathogenic effect, MTT; for SI: selectivity index, ratio of CC50 to EC50
Experimental: (§1) A rapid and automated assay procedure was used for the in vitro evaluation of anti-HIV agents. An HTLV-1 transformed T4-cell line MT-4, which was previously shown to be highly susceptible to and permissive for HIV infection, served as the target cell line. Inhibition of the HIV-induced cytopathogenic effect was used as the end point. The viabitlity of both HIV- and mock-infected cells was assessed spectrophotometrically via in situ reduction of 3-(4,5-dimethylthiazol-2-yl)-2,5-diphenyltetrazolium bromide (MTT). The 50% cytotoxic concentration (CC50 in μM or μg/ml) was defined as the concentration of compound that reduced the absorbance of the mock-infected control sample by 50%. The percent protection achieved by the compound in HIV-infected cells was calculated by the following formula:
(§2) [formula] whereby (ODT)HIV is the optical density measured with a given concentration of the test compound in HIV-infected cells; (ODC)HIV is the optical density measured for the control untreated HIV-infected cells; (ODC)MOCK is the optical density measured for the control untreated mock-infected cells; all optical density values were determined at 540 nm. The dose achieving 50% protection according to the above formula was defined as the 50% inhibitory concentration (EC50 in μM or μg/ml). The ratio of CC50 to EC50 was defined as the selectivity index (SI). […] Examples of inhibition of cell proliferation by particular compounds of the invention can be found by looking at the respective CC50 values in the MT-4 cell line. Cells:
(§3) MT-4 cells (Miyoshi et al., 1982) were grown and maintained in RPMI 1640 medium supplemented with 10% heat-inactivated fetal calf serum, 2 mM I-glutamine, 0.1% sodium bicarbonate, and 20 μg of gentamicin per ml. Alternatively, the MT-4 cells may also be grown in RPMI 1640 medium supplemented with 10% FCS and 20 μg/ml of gentamicin (RPMI-complete).
The HIV-1 (IIIB) strain (Popovic et al., 1984) as well as the HIV-1 (NL4.3) strain (Adachi et al., J. Virol. 59, 284-291 (1986)) were used.

[2] = Cytotoxicity in mock-infected MT-4 cells (MTT); format: cell-based; conditions: human, 50% cytotoxic concentration
Experimental: as §1, §2, §3

[3] = target: LEDGF/p75-HIV-1 integrase interaction (Human immunodeficiency virus type 1 group M subtype B (isolate HXB2) (HIV-1), UniProt P04585); experiment: AlphaScreen assay of LEDGF-integrase interaction inhibition; format: binding
Experimental: Alphascreen Assay to Measure the LEDGF-Integrase Interaction Inhibitory Activity of Compounds of the Invention
The AlphaScreen assay was performed according to the manufacturer's protocol (Perkin Elmer, Benelux). Reactions were performed in 25 μl final volume in 384-well Optiwell™ microtiter plates (Perkin Elmer). The reaction buffer contained 25 mM Tris-HCl (pH 7.4), 150 mM NaCl, 1 mM MgCl2, 0.01% (v/v) Tween-20 and 0.1% (w/v) bovine serum albumin. His6-tagged integrase (300 nM final concentration) was incubated with the compounds for 30 min at 4° C. The compounds were added at varying concentrations spanning a wide range from 0.1 up to 100 μM. Afterwards 100 nM flag-LEDGF/p75 was added and incubation was prolonged for an additional hour at 4° C. Subsequently 5 μl of Ni-chelate-coated acceptor beads and 5 μl anti-flag donor beads were added to a final concentration of 20 μg/ml of both beads. Proteins and beads were incubated for 1 h at 30° C. in order to allow association to occur. Exposure of the reaction to direct light was omitted as much as possible and the emission of light from the acceptor beads was measured in the EnVision plate reader (Perkin Elmer, Benelux) and analyzed using the EnVision manager software. IN/DNA binding was analyzed in a similar setting using His6-tagged integrase (1 μM final concentration) and an oligodeoxynucleotide mimicking the IN ELISA oligonucleotide substrate (30 nM final concentration). Counterscreens with JPO2 or PogZ, respectively, were essentially performed as described previously.
His6-tagged HIV-1 integrase, 3xflag-tagged LEDGF/p75, MBP-JPO2 and MBP-PogZ were purified for AlphaScreen applications as described previously 23,25,56.

[4] = His6-tagged integrase 300 nM, flag-LEDGF/p75 100 nM, read-out: Alphascreen IC50

| Compound | EC50 [1] [µM] | SI [1] | CC50 [2] [µM] | IC50 [3, 4] [µM] | IC50 [3] [µM] |
| --- | --- | --- | --- | --- | --- |
| CCCC(C(=O)O)c1c(C)nc2sc3c(c2c1-c1ccc(C)cc1)CCC3C (centres unmarked) [Cpd 128, 2-[2-methyl-7-methyl-4-p-tolyl-6,7-dihydro-5H-cyclopenta[4,5]thieno[2,3-b]pyridin-3-yl]pentanoic acid] | 4.07 | 30 | 121 | 11.3 | – |
| CCCC(C(=O)O)c1c(C)nc2sc3c(c2c1-c1ccco1)CCC3 (centres unmarked) [Cpd 129, 2-[2-Methyl-4-(2-furyl)-6,7-dihydro-5H-cyclopenta[4,5]thieno[2,3-b]pyridin-3-yl]pentanoic acid] | > 130 | – | 130 | 48 | – |
| CCCC(C(=O)O)c1c(C)nc2sc3c(c2c1-c1cccs1)CCC3 (centres unmarked) [Cpd 130, 2-[2-Methyl-4-(2-thienyl)-6,7-dihydro-5H-cyclopenta[4,5]thieno[2,3-b]pyridin-3-yl]pentanoic acid] | 29.6 | 4 | 130 | 30.6 | – |
| CCCC(C(=O)O)c1c(C)nc2sc3c(c2c1-c1ccc(OC)cc1)CCC3 (centres unmarked) [Cpd 131, 2-[2-Methyl-4-(p-anisyl)-6,7-dihydro-5H-cyclopenta[4,5]thieno[2,3-b]pyridin-3-yl]pentanoic acid] | 2.43 | 52 | 127 | – | 4.54 |
| CCCC(C(=O)O)c1c(C)nc2sc3c(c2c1-c1ccc(C)cc1)CCOC3 (centres unmarked) [Cpd 133, 2-[2-Methyl-4-(p-tolyl)-5,8-dihydro-6H-7-oxa-9-thia-1-aza-fluoren-3-yl]pentanoic acid] | 18 | 8 | 165 | 7.8 | – |
| Cc1ccc(-c2c(C(Cc3ccccc3)C(=O)O)c(C)nc3sc4c(c23)CCC4)cc1 (centres unmarked) [Cpd 134, 2-[2-Methyl-4-(4-methylphenyl)-6,7-dihydro-5H-cyclopenta[4,5]thieno[2,3-b]pyridin-3-yl]-3-phenylpropanoic acid] | > 114 | – | 114 | 84.1 | – |
| CCCC(C(=O)O)c1c(C)nc2sc3c(c2c1-c1ccc(C)cc1)CCCCC3 (centres unmarked) [Cpd 135] | 42.4 | 3 | 109 | – | 55.8 |
| Cc1ccc(-c2c(C(CC(C)C)C(=O)O)c(C)nc3sc4c(c23)CCCC4)cc1 (centres unmarked) [Cpd 136, 2-[2-Methyl-4-(p-tolyl)-5,6,7,8-tetrahydro[1]benzothieno[2,3-b]pyridin-3-yl]-4-methylpentanoic acid] | 1.02 | 85 | 86.4 | 4.34 | – |
| CCCC(C(=O)O)c1c(C)nc2sc3c(c2c1-c1ccccc1Cl)CCCC3 (centres unmarked) [Cpd 137, 2-[2-Methyl-4-(2-chlorophenyl)-5,6,7,8-tetrahydro[1]benzothieno[2,3-b]pyridin-3-yl]pentanoic acid] | > 111 | – | 111 | 51.9 | – |
| CCCC(C(=O)O)c1c(C)nc2sc3c(c2c1-c1cccc(Cl)c1)CCCC3 (centres unmarked) [Cpd 138, 2-[2-Methyl-4-(3-chlorophenyl)-5,6,7,8-tetrahydro[1]benzothieno[2,3-b]pyridin-3-yl]pentanoic acid] | 43.3 | 2 | 100 | 39.9 | – |
| CCCC(C(=O)O)c1c(C)nc2sc3c(c2c1-c1ccc(Cl)c(Cl)c1)CCCC3 (centres unmarked) [Cpd 139, 2-[2-Methyl-4-(3,4-dichlorophenyl)-5,6,7,8-tetrahydro[1]benzothieno[2,3-b]pyridin-3-yl]pentanoic acid] | 5.32 | 10 | 55.1 | 9.24 | – |
| CCCC(C(=O)O)c1c(C)nc2sc3c(c2c1-c1cccc(C(F)(F)F)c1)CCCC3 (centres unmarked) [Cpd 140, 2-[2-Methyl-4-(3-trifluoromethylphenyl)-5,6,7,8-tetrahydro[1]benzothieno[2,3-b]pyridin-3-yl]pentanoic acid] | 28.2 | 4 | 100 | 18.1 | – |
| CCCC(C(=O)O)c1c(C)nc2sc3c(c2c1-c1cccc(C)c1)CCCC3 (centres unmarked) [Cpd 141, 2-[2-Methyl-4-(m-tolyl)-5,6,7,8-tetrahydro[1]benzothieno[2,3-b]pyridin-3-yl]pentanoic acid] | 14.8 | 4 | 55.5 | 23.7 | – |
| CCCC(C(=O)O)c1c(C)nc2scc(-c3ccccc3)c2c1-c1ccc(C)cc1 (centres unmarked) [Cpd 143] | > 66 | – | 66 | 49.2 | – |
| CCCC(C(=O)O)c1c(C)nc2sc3c(c2c1-c1cccc(OC)c1)CCCC3 (centres unmarked) [Cpd 144, 2-[2-Methyl-4-(m-anisyl)-5,6,7,8-tetrahydro[1]benzothieno[2,3-b]pyridin-3-yl]pentanoic acid] | 20 | 3 | 63 | – | 6.64 |
| CCCC(C(=O)O)c1c(C)nc2sc3c(c2c1-c1ccc(OC)c(OC)c1)CCCC3 (centres unmarked) [Cpd 145, 2-[2-Methyl-4-(3,4-dimethoxyphenyl)-5,6,7,8-tetrahydro[1]benzothieno[2,3-b]pyridin-3-yl]pentanoic acid] | 123 | >1 | > 125 | 29.6 | – |
| CCCC(C(=O)O)c1c(C)nc2sc3c(c2c1-c1ccc2c(c1)OCO2)CCCC3 (centres unmarked) [Cpd 146, 2-[2-Methyl-4-(benzo[d][1,3]dioxol-5-yl)-5,6,7,8-tetrahydro[1]benzothieno[2,3-b]pyridin-3-yl]pentanoic acid] | 2.98 | 42 | 124 | 4.76 | – |
| Cc1ccc(-c2c(C(CCCC(F)(F)F)C(=O)O)c(C)nc3sc4c(c23)CCCC4)cc1 (centres unmarked) [Cpd 147, 2-[2-Methyl-4-(p-tolyl)-5,6,7,8-tetrahydro[1]benzothieno[2,3-b]pyridin-3-yl]-6,6,6-trifluorohexanoic acid] | 8.79 | 5 | 41.5 | 23.7 | – |
| CCCC(C(=O)O)c1c(C)nc2sc3c(c2c1-c1ccc(Cl)cc1)CCCC3 (centres unmarked) [Cpd 148, 2-[2-Methyl-4-(4-chlorophenyl)-5,6,7,8-tetrahydro[1]benzothieno[2,3-b]pyridin-3-yl]pentanoic acid] | 0.53 | 132 | 70 | 2.19 | – |
| CCCC(C(=O)O)c1c(C)nc2sc3c(c2c1-c1ccc(CC)cc1)CCCC3 (centres unmarked) [Cpd 149, 2-[2-Methyl-4-(4-ethylphenyl)-5,6,7,8-tetrahydro[1]benzothieno[2,3-b]pyridin-3-yl]pentanoic acid] | > 67 | – | 67 | 74.4 | – |
| CCCC(C(=O)O)c1c(C)nc2sc3c(c2c1-c1cccnc1)CCCC3 (centres unmarked) [Cpd 150, 2-[2-Methyl-4-(pyridin-3-yl)-5,6,7,8-tetrahydro[1]benzothieno[2,3-b]pyridin-3-yl]pentanoic acid] | 0.78 | 49 | 38.5 | 1.37 | – |
| CCCC(C(=O)O)c1c(C)nc2sc3c(c2c1-c1ccc(OC(F)(F)F)cc1)CCCC3 (centres unmarked) [Cpd 151, 2-[2-Methyl-4-(4-trifluoromethoxyphenyl)-5,6,7,8-tetrahydro[1]benzothieno[2,3-b]pyridin-3-yl]pentanoic acid] | 8 | 6 | 48 | 21.5 | – |
